Consider ten molecules from article PMC4468025 (Biochemical pharmacology, 2015).

“Also recorded” adds a separate entry of the source. Like-named read-outs stand apart in the source and are kept apart here.

In experiment [1] the test system is HT1080 fibrosarcoma cells. Briefly: HT1080 cell migration assay. Format: cell-based, human. The settings on record: for inhibition at 100 µM: Homo sapiens, HT-1080, 24 h, read-out: inhibition of HT1080 cell migration, 100 µM, 24 h.
Experiment [2] deals with Pseudomonas aeruginosa exotoxin A cytotoxicity in CHO DG44 cells. Nature of the experiment: Pseudomonas exotoxin A assay. The experiment is classed as cell-based, Chinese hamster.
In experiment [3] the test system is anthrax toxin (PA + LF) cytotoxicity in RAW264.7 cells. The experiment is classed as cell-based, murine.
For the next experiment, the system named is PC1/3. Briefly: PC1/3 inhibition. Format: biochemical. To be noted: for inhibition of PC1/3 (in words): 10 µM; for inhibition of PC1/3: 100 µM.
Experiment [4] has as its system Golgi furin in CHO-GRAPfurin cells. Briefly: SEAP activity assay in CHO-GRAPfurin cells. The experiment is classed as cell-based, Chinese hamster. The settings on record: 100 µM, 20–24 h.
Another experiment deals with furin. The settings on record: Ki values taken from the literature; cited from earlier work.
Another experiment has as its system PC5. The settings on record: cited from earlier work.
A further experiment has as its system PACE4. To be noted: cited from earlier work.
The target in another experiment is Soluble human furin (Homo sapiens, UniProt P09958). Briefly: Furin enzyme assay, IC50 and Ki determination.
For the next experiment, the system named is skin tumor. The settings on record: cited from earlier work.
Experiment [5] has as its system human fibrosarcoma HT1080 cells. To be noted: by inhibiting proMT1-MMP processing; cited from earlier work.
Where [6] appears, read: concentration not stated in the sentence (10 and 100 µM tested).

Soluble human furin, sequence (P09958 108-715 limits assumed): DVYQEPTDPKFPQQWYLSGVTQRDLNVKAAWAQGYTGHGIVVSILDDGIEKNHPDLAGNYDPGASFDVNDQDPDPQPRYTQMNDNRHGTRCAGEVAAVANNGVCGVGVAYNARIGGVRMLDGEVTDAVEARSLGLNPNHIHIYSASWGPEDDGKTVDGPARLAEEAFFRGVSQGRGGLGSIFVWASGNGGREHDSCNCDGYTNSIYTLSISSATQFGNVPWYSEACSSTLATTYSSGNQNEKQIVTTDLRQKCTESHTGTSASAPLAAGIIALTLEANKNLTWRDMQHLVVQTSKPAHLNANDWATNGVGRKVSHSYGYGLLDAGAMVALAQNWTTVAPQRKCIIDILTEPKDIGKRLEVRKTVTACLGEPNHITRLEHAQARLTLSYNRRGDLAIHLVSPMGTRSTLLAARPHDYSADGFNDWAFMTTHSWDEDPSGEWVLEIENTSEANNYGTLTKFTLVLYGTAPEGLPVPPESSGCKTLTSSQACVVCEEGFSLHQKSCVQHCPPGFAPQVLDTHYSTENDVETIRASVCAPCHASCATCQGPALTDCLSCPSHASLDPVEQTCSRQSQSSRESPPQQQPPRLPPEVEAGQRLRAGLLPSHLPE

With `N=C(N)Nc1ccc(O[C@@H]2CCC[C@H](Oc3ccc(NC(=N)N)cc3)C2)cc1` [2b, cis-1,3-bis(4-guanidinophenoxy)cyclohexane], in experiment [1] (100 µM, 24 h), the “inhibition of cell migration (in words)” value was “inhibited migration”. Besides, the inhibition at 100 µM in [1] was about 40%.
Turning to `N=C(N)Nc1ccc(OCCCOc2ccc(NC(=N)N)cc2NC(=N)N)c(NC(=N)N)c1` [2d, 1,3-bis(2,4-diguanidinophenoxy)propane], the “inhibition of HT1080 cell migration” value in experiment [1] (100 µM, 24 h) is “around 40%”. Also, the “protection against Pseudomonas exotoxin A (in words)” value in [2] (setting [6]) was “good protection”. Further, the “protection against anthrax toxicity (in words)” value in [3] (100 µM inhibitor, 2 h) was “excellent protection”. In the experiment on PC1/3, the “inhibition of PC1/3 (in words)” value is given as “no inhibition detected” and the “inhibition of PC1/3” value was determined as 51%.
Consider `N=C(N)Nc1ccc(O[C@@H]2CCC[C@H](Oc3ccc(NC(=N)N)cc3NC(=N)N)C2)c(NC(=N)N)c1` [2e, cis-1,3-bis(2,4-diguanidinophenoxy)cyclohexane], for which the inhibition at 100 µM in [1] lay within 20 to 25%. Also, the “protection against Pseudomonas exotoxin A (in words)” value in [2] (setting [6]) is recorded as “good protection”. Besides, in experiment [3] (100 µM inhibitor, 2 h), the “protection against anthrax toxicity (in words)” value was “excellent protection”. In addition, in the experiment on PC1/3, the “inhibition of PC1/3 (in words)” value is “no inhibition detected” and the “inhibition of PC1/3” value is 38%.
As to `N=C(N)Nc1ccc(OC2CC(Oc3ccc(NC(=N)N)cc3NC(=N)N)C(NC(=N)N)CC2NC(=N)N)cc1` (centres unmarked) [compound 1b, 1,1'-(4-((2,4-diguanidino-5-(4-guanidinophenoxy)cyclohexyl)oxy)-1,3-phenylene)diguanidine], the “inhibition of intracellular (TGN) furin, SEAP release (in words)” value (from here on “inhibition of intracellular (TGN) furin”) in experiment [4] is on record as “block release of a Golgi reporter; also recorded: able to inhibit intracellular furin; also recorded: able to inhibit TGN furin”. Moreover, the “inhibition of cell migration (in words)” value in experiment [1] (100 µM, 24 h) was “retard tumor cell migration; also recorded: good inhibitors of cell migration; also recorded: inhibited cell migration”. Further, the inhibition at 100 µM in [1] worked out at 35%. The “protection against Pseudomonas exotoxin A (in words)” value in experiment [2] (10 µM inhibitor, 20–24 h) is “completely prevent Pseudomonas toxin cytotoxicity”; in experiment [2] (setting [6]) it was “protect cells against Bacillus anthracis (anthrax) and Pseudomonas aeruginosa intoxication; also recorded: capable of blocking both Pseudomonas and anthrax toxemia at low doses”. The “protection against anthrax toxicity (in words)” value was “complete inhibition of anthrax toxicity” in [3] (10 µM inhibitor, 2 h); “protect cells against Bacillus anthracis (anthrax); also recorded: capable of blocking both Pseudomonas and anthrax toxemia at low doses” in [3] (setting [6]). Besides, the “potency against furin in vitro (in words)” value at furin is listed as “nanomolar potency”.
Turning to `N=C(N)Nc1ccc(OC2CC(Oc3ccc(NC(=N)N)cc3)C(NC(=N)N)CC2NC(=N)N)cc1` (centres unmarked) [compound 1g, 1,1'-(4,6-bis(4-guanidinophenoxy)cyclohexane-1,3-diyl)diguanidine], the “inhibition of intracellular (TGN) furin” value in experiment [4] is given as “unable to inhibit”. Moreover, the “inhibition of cell migration (in words)” value in [1] (100 µM, 24 h) is given as “did not inhibit cell migration; also recorded: unable to inhibit”. The “protection against Pseudomonas exotoxin A (in words)” value in experiment [2] (setting [6]) is listed as “only moderate protection; also recorded: modest effect”. For the same molecule, the “protection against anthrax toxicity (in words)” value is reported as “complete inhibition of anthrax toxicity” in experiment [3] (10 µM inhibitor, 2 h) and “efficiently protected cells against anthrax; also recorded: potently prevented anthrax toxicity” in experiment [3] (setting [6]). The “potency against furin in vitro (in words)” value on furin is recorded as “nanomolar potency”. Moreover, the “cross-inhibition of PC5 (in words)” value with PC5 was “substantial cross-inhibition”. The “cross-inhibition of PACE4 (in words)” value in the experiment on PACE4 was “substantial cross-inhibition”.
`N=C(N)Nc1ccc(OCCCOc2ccc(NC(=N)N)cc2)cc1` [compound 2a, 1,3-bis(4-guanidinophenoxy)propane]: in [1] (100 µM, 24 h), the “inhibition of cell migration (in words)” value is listed as “inhibited migration”. Also, in [1], the inhibition at 100 µM was about 40%. The “protection against anthrax toxicity (in words)” value in [3] (100 µM inhibitor, 2 h) is on record as “unable to block anthrax toxicity”.
For `N=C(N)Nc1ccc(Oc2cccc(Oc3ccc(NC(=N)N)cc3)c2)cc1` [compound 2c, 1,3-bis(4-guanidinophenoxy)benzene], in [1] (100 µM, 24 h), the “inhibition of cell migration (in words)” value is reported as “the most potent inhibitor; also recorded: inhibited migration; also recorded: completely inhibited cell mobility”.
For the molecule `N=C(N)Nc1ccc(Oc2cccc(Oc3ccc(NC(=N)N)cc3NC(=N)N)c2)c(NC(=N)N)c1` [compound 2f, 1,3-bis(2,4-diguanidinophenoxy)benzene], in experiment [4], the “inhibition of intracellular (TGN) furin” value is recorded as “only slightly inhibited”. In addition, in experiment [1], the inhibition at 100 µM was in the range of 20 to 25%. For the same molecule, in experiment [2] (setting [6]), the “protection against Pseudomonas exotoxin A (in words)” value is “good protection”. Also, the “protection against anthrax toxicity (in words)” value is “almost complete protection; also recorded: complete inhibition of anthrax toxicity” in experiment [3] (10 µM inhibitor, 2 h); “excellent protection” in [3] (100 µM inhibitor, 2 h); “highly efficient protection” in experiment [3] (setting [6]). Besides, the “inhibition of furin in vitro (in words)” value against Soluble human furin is “micromolar potency”.
dec-RVKR-CMK: the “skin tumor progression (in words)” value in the experiment on skin tumor is reported as “decreases skin tumor progression”.
Regarding naphthofluorescein disodium salt [B3], the “cell mobility and invasiveness of HT1080 cells (in words)” value in experiment [5] was “prevented cell mobility and invasiveness”.
